In general, IC50 refers to the midpoint of a concentration-inhibition curve.

Drawing on BindingDB's records for doi:10.1021/jm00083a002 (Ici Pharmaceuticals Group, 1992), this text covers IC50 for 25 molecules.

One assay deals with Prolyl 4-hydroxylase (Gallus gallus). Put plainly: ChEBML_157453. From the text: Inhibition of prolyl 4-hydroxylase activity by an indirect assay
Turning to `COc1ccc(NC(=O)c2ccc(C(=O)O)nc2)cc1`, inhibition was half-maximal at 21.1 µM (IC50).

Regarding `COc1ccccc1NC(=O)c1ccc(C(=O)O)nc1`, the IC50 was 14.8 µM.

The molecule `O=C(Nc1ccc([N+](=O)[O-])cc1)c1ccc(C(=O)O)nc1` gave an IC50 of 44 µM.

`O=C(Nc1ccccc1Cl)c1ccc(C(=O)O)nc1` showed an IC50 of 16.3 µM.

`O=C(Nc1ccc(C(=O)O)nc1)c1ccccc1` returned an IC50 of 25.6 µM.

On to `O=C(Nc1ccc(F)cc1)c1ccc(C(=O)O)nc1`, for which the IC50 is 16.1 µM.

`Cc1ccc(NC(=O)c2ccc(C(=O)O)nc2)cc1` registered an IC50 of 8.3 µM.

`O=C(O)c1ccc(/C=C/c2ccc(Cl)cc2)cn1` gave an IC50 of 150 µM.

Regarding `Cc1ccc(C(=O)Nc2ccc(C(=O)O)nc2)cc1`, the IC50 is 16.5 µM.

As for `COc1cc(NC(=O)c2ccc(C(=O)O)nc2)cc(OC)c1OC`, the IC50 turned out to be 26.5 µM. This IC50 is about 1.6-fold higher than that of the molecule before.

`O=C(Nc1ccc(C(=O)O)nc1)c1ccc(Cl)cc1` had an IC50 of 22.5 µM.

Molecule `O=C(Nc1ccccc1)c1ccc(C(=O)O)nc1` showed an IC50 of 26.5 µM. The IC50 values of the last two molecules are within 1.5-fold of each other.

Consider `COc1ccc(NC(=O)c2ccc(C(=O)O)nc2)c(OC)c1`, for which 16.6 µM corresponded to half-maximal inhibition (IC50).

For the molecule `O=C(O)c1ccc(OCc2ccccc2)cn1`, the IC50 is 39 µM.

With `O=C(Nc1ccc(Cl)cc1)c1ccc(C(=O)O)nc1`, the IC50 is 17.4 µM.

As for `O=C(Nc1ccccc1F)c1ccc(C(=O)O)nc1`, the IC50 was 11 µM.

`CCOc1ccc(C(=O)Nc2ccc(C(=O)O)nc2)cc1` came in with an IC50 of 11.2 µM.

`CCOc1ccc(NC(=O)c2ccc(C(=O)O)nc2)cc1` yielded an IC50 of 5 µM.

In turn, `CN(C)c1ccc(NC(=O)c2ccc(C(=O)O)nc2)cc1` displayed an IC50 of 4.1 µM.

As for `O=C(Nc1cccc(Cl)c1)c1ccc(C(=O)O)nc1`, the IC50 stood at 32.2 µM.

In turn, `O=C(O)c1ccc(NC(=O)c2ccccc2F)cn1` returned an IC50 of 33.8 µM.

For the molecule `O=C(Nc1ccc(C(=O)O)nc1)c1ccc(F)cc1`, the IC50 amounted to 51.2 µM. Compared with the last molecule, the IC50 is about 1.5-fold higher.

`CN(C)c1ccc(C(=O)Nc2ccc(C(=O)O)nc2)cc1`: half-maximal inhibition (IC50) required 11.3 µM.

`O=C(O)c1ccc(NCc2ccc(F)cc2)cn1` came in with an IC50 of 31 µM.

`CCOc1ccccc1NC(=O)c1ccc(C(=O)O)nc1`: the IC50 is 32.9 µM.

The next assay has as its target prolyl 4-hydroxylase (Gallus gallus). The assay is described as follows: Compound was evaluated for inhibition of Prolyl 4-hydroxylase activity in cultured embryonic chick tendon cells.
As to `O=C(O)c1ccc(NCc2ccc(F)cc2)cn1`, half-maximal inhibition (IC50) was put at 80 µM. In other words, the double-digit micromolar range.
